Legend:
[1] = biological target: T1, 5-hydroxytryptamine receptor 1A (Homo sapiens) (UniProt P08908); assay: Biased agonist activity at human recombinant 5-HT1A receptor stably expressed in CHO-K1 cells assessed as inhibition of forskolin-induced cAMP accumulation after 40 mins by LANCE Ultra cAMP kit-based TR-FRET assay relative to serotonin; assay type: functional, cell-based
T1 sequence (whole entry): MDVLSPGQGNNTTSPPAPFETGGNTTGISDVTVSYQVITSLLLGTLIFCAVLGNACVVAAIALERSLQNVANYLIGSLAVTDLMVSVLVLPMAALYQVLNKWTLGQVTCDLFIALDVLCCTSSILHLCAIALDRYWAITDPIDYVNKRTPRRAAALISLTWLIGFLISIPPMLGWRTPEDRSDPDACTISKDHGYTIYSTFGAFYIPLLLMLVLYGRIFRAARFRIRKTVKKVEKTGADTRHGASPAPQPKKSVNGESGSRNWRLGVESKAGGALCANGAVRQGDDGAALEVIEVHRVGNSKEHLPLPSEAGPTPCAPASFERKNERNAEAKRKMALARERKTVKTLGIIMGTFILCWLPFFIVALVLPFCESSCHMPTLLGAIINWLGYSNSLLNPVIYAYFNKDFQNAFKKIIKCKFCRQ

[2] = biological target: T1, 5-hydroxytryptamine receptor 1A (Homo sapiens); assay: Biased agonist activity at Gal4-VP16 transcription factor linked human 5-HT1A receptor expressed in human U2OS cells assessed as stimulation of beta-arrestin recruitment measured after 5 hrs by Tango assay relative to serotonin; assay type: cell-based
[3] = biological target: T1, 5-hydroxytryptamine receptor 1A (Homo sapiens); assay: Biased agonist activity at human recombinant 5-HT1A receptor stably expressed in CHO-K1 cells assessed as increase in ERK1/2 phosphorylation levels incubated for 15 mins by Alphalisa assay relative to serotonin; assay type: cell-based
[4] = biological target: T2, Adrenergic receptor alpha-1 (Rattus norvegicus, UniProt P15823+P23944+P43140); assay: Displacement of [3H]-prazosin from alpha1 adrenergic receptor in rat cortex measured after 30 mins by microbeta2 scintillation counting method; assay type: tissue-based
T2 sequence (P15823 whole entry): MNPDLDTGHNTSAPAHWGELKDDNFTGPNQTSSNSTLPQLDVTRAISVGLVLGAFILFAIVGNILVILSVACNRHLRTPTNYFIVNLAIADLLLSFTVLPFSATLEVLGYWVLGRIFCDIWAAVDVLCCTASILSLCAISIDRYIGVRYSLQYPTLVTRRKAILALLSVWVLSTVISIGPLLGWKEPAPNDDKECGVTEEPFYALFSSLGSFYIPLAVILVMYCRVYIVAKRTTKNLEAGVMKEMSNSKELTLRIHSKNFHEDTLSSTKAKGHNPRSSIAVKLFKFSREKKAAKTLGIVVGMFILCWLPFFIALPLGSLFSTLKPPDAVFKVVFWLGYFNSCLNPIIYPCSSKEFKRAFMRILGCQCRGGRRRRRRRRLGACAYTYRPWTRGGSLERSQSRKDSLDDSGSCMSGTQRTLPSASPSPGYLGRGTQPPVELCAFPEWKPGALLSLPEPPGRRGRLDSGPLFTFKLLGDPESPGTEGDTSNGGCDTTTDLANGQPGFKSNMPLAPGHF
T2 sequence (P23944 whole entry): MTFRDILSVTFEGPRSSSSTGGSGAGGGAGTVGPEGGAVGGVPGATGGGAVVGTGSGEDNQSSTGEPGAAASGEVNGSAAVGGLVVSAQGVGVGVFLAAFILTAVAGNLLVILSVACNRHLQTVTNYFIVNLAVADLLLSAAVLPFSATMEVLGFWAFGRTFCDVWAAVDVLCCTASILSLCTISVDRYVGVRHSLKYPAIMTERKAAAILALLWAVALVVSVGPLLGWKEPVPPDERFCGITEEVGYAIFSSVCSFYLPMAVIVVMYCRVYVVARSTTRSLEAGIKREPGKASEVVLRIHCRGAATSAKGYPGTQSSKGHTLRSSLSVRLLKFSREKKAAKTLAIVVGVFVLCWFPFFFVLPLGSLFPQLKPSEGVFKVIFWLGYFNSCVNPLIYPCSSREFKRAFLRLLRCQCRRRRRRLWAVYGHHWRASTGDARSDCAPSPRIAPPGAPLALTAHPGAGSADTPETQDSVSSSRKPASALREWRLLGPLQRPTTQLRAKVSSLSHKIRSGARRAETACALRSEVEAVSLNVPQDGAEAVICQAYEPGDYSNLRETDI
T2 sequence (P43140 whole entry): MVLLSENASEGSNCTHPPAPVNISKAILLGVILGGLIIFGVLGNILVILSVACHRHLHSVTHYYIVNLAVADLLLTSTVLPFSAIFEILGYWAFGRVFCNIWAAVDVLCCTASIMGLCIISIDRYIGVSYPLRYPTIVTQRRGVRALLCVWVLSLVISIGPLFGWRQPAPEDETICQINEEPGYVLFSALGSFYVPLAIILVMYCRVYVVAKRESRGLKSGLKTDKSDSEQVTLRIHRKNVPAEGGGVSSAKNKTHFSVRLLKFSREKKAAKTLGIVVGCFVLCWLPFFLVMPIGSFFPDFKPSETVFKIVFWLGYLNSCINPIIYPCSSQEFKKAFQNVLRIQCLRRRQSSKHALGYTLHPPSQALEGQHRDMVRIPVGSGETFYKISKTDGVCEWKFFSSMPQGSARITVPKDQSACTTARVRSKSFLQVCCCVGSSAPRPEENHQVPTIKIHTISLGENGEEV

[5] = biological target: T1, 5-hydroxytryptamine receptor 1A (Homo sapiens); assay: (§1) Bias factor, ratio of biased agonist activity at human recombinant 5-HT1A receptor stably expressed in CHO-K1 cells assessed as increase in ERK1/2 phosphorylation levels to biased agonist activity at Gal4-VP16 transcription factor linked human 5-HT1A receptor expressed in human U2OS cells assessed as stimulation of beta-arrestin recruitment; assay type: cell-based
[6] = biological target: T1, 5-hydroxytryptamine receptor 1A (Homo sapiens); assay: as §1, with “inhibition of forskolin-induced cAMP accumulation” for “increase in ERK1/2 phosphorylation levels”; assay type: functional, cell-based
[7] = biological target: T3, 5-hydroxytryptamine receptor 1A (Homo sapiens, UniProt P08908); assay: Biased agonist activity at human recombinant 5-HT1A receptor stably expressed in CHO-K1 cells assessed as increase in ERK1/2 phosphorylation levels incubated for 15 mins by Alphalisa assay; assay type: cell-based
T3 sequence (P08908 whole entry): T1 sequence (whole entry)

[8] = biological target: T1, 5-hydroxytryptamine receptor 1A (Homo sapiens); assay: Bias factor, ratio of biased agonist activity at human recombinant 5-HT1A receptor stably expressed in CHO-K1 cells assessed as increase in ERK1/2 phosphorylation levels to biased agonist activity at human recombinant 5-HT1A receptor stably expressed in CHO-K1 cells assessed as inhibition of forskolin-induced cAMP accumulation; assay type: functional, cell-based
D(2) dopamine receptor = D(2) dopamine receptor (Homo sapiens, UniProt P14416); assay: Displacement of [3H]-methylspiperone from recombinant human D2 receptor stably expressed in CHO-K1 cell membranes measured after 60 mins by microbeta2 scintillation counting method; design: species or system Cell membrane
D(2) dopamine receptor, sequence (P14416 whole entry): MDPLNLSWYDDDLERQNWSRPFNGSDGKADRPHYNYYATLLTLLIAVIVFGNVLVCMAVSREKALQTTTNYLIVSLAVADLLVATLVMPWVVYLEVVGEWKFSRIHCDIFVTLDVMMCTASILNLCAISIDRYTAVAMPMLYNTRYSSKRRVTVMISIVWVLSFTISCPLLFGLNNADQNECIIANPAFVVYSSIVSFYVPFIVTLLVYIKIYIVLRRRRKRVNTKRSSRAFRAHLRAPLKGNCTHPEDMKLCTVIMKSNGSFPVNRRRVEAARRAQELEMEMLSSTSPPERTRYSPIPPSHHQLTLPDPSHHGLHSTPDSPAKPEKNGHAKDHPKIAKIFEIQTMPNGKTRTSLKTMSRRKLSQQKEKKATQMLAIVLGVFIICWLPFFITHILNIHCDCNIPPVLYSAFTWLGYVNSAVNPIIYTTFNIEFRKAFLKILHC

[9] = biological target: T3, 5-hydroxytryptamine receptor 1A; assay: Biased agonist activity at human recombinant 5-HT1A receptor stably expressed in CHO-K1 cells assessed as inhibition of forskolin-induced cAMP accumulation after 40 mins by LANCE Ultra cAMP kit-based TR-FRET assay; assay type: functional, cell-based
[10] = biological target: T3, 5-hydroxytryptamine receptor 1A; assay: Displacement of [3H]8-OH-DPAT from recombinant human 5HT1A receptor stably expressed in CHO-K1 cell membranes measured after 60 mins by microbeta2 scintillation counting method; design: species or system Cell membrane
[11] = biological target: T1, 5-hydroxytryptamine receptor 1A (Homo sapiens); assay: Biased agonist activity at human recombinant 5-HT1A receptor stably expressed in CHO-K1 cells assessed as increase in calcium mobilization measured at 2 sec intervals for 180 secs by Fluo-4AM dye based fluorescence assay relative to serotonin; assay type: functional, cell-based; conditions: time 180.0 sec
Rattus norvegicus [12] = assay: Antidepressant-like activity in Wistar rat assessed as minimum effective dose causing reduction in immobility time after sc administration with compound 60 mins prior to testing and measured for 5 mins test period by Porsolt-forced swim test; assay type: functional; conditions: 1 h, read-out: MED
[13] = Toxicity in Wistar rat assessed as minimum effective dose causing effect on flat body posture administered subcutaneously with compound and observed after 60 mins post treatment; conditions: in vivo, sc, 1 h
Rattus norvegicus [14] = assay: Antidepressant-like activity in Wistar rat assessed as reduction in immobility time at 0.63 mg/kg, sc administered 60 mins prior to testing and measured for 5 mins test period by Porsolt-forced swim test; assay type: functional; design: scale not given: the % may be the effect or the level left; conditions: time 65 min, 1.083 h

Structure (SMILES) | Emax ([1]; filed as partial agonist) [%] | pKi [4] | Emax ([1]; filed as agonist) [%] | Emax ([2]; filed as agonist) [%] | Emax ([3]; filed as agonist) [%] | also measured
Cc1cnc(OCCNCC2(F)CCN(C(=O)c3ccc(F)c(Cl)c3)CC2)nc1 | 41 | < 6 | – | – | – | Emax ([2]; filed as partial agonist): 75%; Emax ([3]; filed as partial agonist): 72%
O=C(c1ccc(F)c(Cl)c1)N1CCC(F)(CNCCSc2ccccc2)CC1 | 71 | – | – | – | – | Ratio [5]: 0.82; Ratio [6]: -0.45; EC50 [7]: 0.17 µM; Emax ([2]; filed as partial agonist): 70%; Ratio [8]: 1.27; Emax ([3]; filed as partial agonist): 85%; Ki (D(2) dopamine receptor): > 1 µM; EC50 [9]: 2.45 µM; Ki [10]: 0.000562 µM
O=C(c1ccc(F)c(Cl)c1)N1CCC(F)(CNCCOc2ncccn2)CC1 | – | < 6 | – | – | – | –
O=C(c1ccc(F)c(Cl)c1)N1CCC(F)(CNCCOc2ccncc2)CC1 | – | < 6 | – | – | – | Ki (D(2) dopamine receptor): > 1 µM; Ki [10]: 0.389 µM
O=C(c1ccc(F)c(Cl)c1)N1CCC(F)(CNCCCc2ccccc2)CC1 | – | < 6 | 91 | 99 | 77 | Emax ([11]; filed as partial agonist): 74%
O=C(c1ccc(F)c(Cl)c1)N1CCC(F)(CNCCOc2ccnnc2)CC1 | – | < 6 | – | – | – | Ki (D(2) dopamine receptor): > 1 µM; Ki [10]: 0.2 µM
O=C(c1ccc(F)c(Cl)c1)N1CCC(F)(CNCCNc2ccccn2)CC1 | – | – | 86 | 99 | – | Emax ([11]; filed as partial agonist): 52%
O=C(c1ccc(F)c(Cl)c1)N1CCC(F)(CNCCOc2cnccn2)CC1 | – | < 6 | 90 | 97 | 100 | Emax ([11]; filed as agonist): 89%
CCCN(CCC)C1CCc2cccc(O)c2C1 (racemic) [8-OH-DPAT] | 63 | – | – | – | 93 | minimal effective dose (Rattus norvegicus [12]): 0.16 mg/kg; MED [13]: 0.63 mg/kg; Activity (Rattus norvegicus [14]): 90%
O=C(c1ccc(Cl)c(Cl)c1)N1CCC(F)(CNCCOc2ccccn2)CC1 | – | – | 71 | 99 | 85 | Emax ([11]; filed as partial agonist): 58%
O=C(c1ccc(F)c(Cl)c1)N1CCC(F)(CNCCCc2ccccn2)CC1 | 74 | – | – | 101 | – | Emax ([11]; filed as agonist): 87%
